{"source": "paper PMC10859961", "about": "“Ir(III) Half-Sandwich Photosensitizers with a π-Expansive Ligand for Efficient Anticancer Photodynamic Therapy” (Journal of Medicinal Chemistry, 2024)", "key": {"[1]": {"assay": "1O2 quantum yield determination with ABDA", "conditions": "H2O/DMSO (95:5); 470 nm blue light", "description": "Fresh stock air-equilibrated solutions of photosensitizers 1–2 and 7–8 (1.00 × 10^–3 M) and ABDA (6.00 × 10^–4 M) in H2O/DMSO (95:5) were prepared. In a quartz cell, 0.50 mL of ABDA solution, 0.03 mL of complex solution, and 2.47 mL of H2O/DMSO (95:5) were mixed to prepare a final solution with 1.00 × 10^–4 M ABDA and 1.00 × 10^–5 M complex. The final solutions were studied by recording UV–vis absorption spectra at room temperature under blue light irradiation (λexc = 470 nm, “Medusa” photoreactor) for 30 s irradiation intervals during a total exposure period of 5 min. Absorption UV–vis spectra were recorded after every irradiation interval.\nThe consumption of ABDA probe was measured by monitoring its absorbance intensity decrease at 402 nm with irradiation time. ^1O2 generation quantum yield (ϕΔ) was calculated from eq 1 using Rose Bengal or [Ru(bpy)3]^2+ as reference. In this case, the ϕΔ values of the references in H2O/DMSO (95:5) are 0.76 for Rose Bengal[73] and 0.18 for [Ru(bpy)3]Cl2.[136] The reproducibility of the results was confirmed by performing each experiment three times."}, "[2]": {"assay": "1O2 quantum yield determination with DPBF", "conditions": "acetonitrile; for 1O2 generation quantum yield (ϕΔ), DPBF: 470 nm blue light", "description": "It was performed for complexes 1–8 in acetonitrile according to a relative procedure adapted from the literature[132]−[134] based on monitoring the oxidation of 1,3-diphenylisobenzofuran (DPBF, yellow) to 1,2-dibenzoylbenzene (colorless) photosensitized by the Ir(III) complexes. DPBF was used as an ^1O2 scavenger due to its fast reaction with this molecule. Fresh stock air-equilibrated solutions of photosensitizers (6.00 × 10^–6 M) and DPBF (1.50 × 10^–4 M) in acetonitrile were prepared. In a quartz cell, 1 mL of DPBF solution, 0.5 mL of complex solution, and 1.5 mL of acetonitrile were mixed to prepare a final solution with 5.00 × 10^–5 M DPBF and 1.00 × 10^–6 M complex. The final solutions were studied by recording UV–vis absorption spectra at room temperature in dark conditions (over a period of 6 min with time intervals of 2 min), under blue light irradiation (λexc = 470 nm, “Medusa” photoreactor) and under green light irradiation (λexc = 530 nm, “Medusa” photoreactor) for 5 s irradiation intervals during a total exposure period of 20 s. Absorption UV–vis spectra were recorded after every irradiation interval.\nThe consumption of DPBF probe was measured by monitoring its absorbance intensity decrease at 410 nm with irradiation time. ^1O2 generation quantum yield (ϕΔ) was calculated from eq 1 using Rose Bengal or [Ru(bpy)3]^2+ as reference for complexes with pbpz and pbpn ligands, respectively: [drawing 22] 1 where s and ref subscripts correspond to the complex and the reference, ϕΔ is the ^1O2 generation quantum yield (0.53 for Rose Bengal[135] and 0.56 for [Ru(bpy)3]Cl2[132] in degassed acetonitrile), S is the slope of the plots of the −ln(normalized absorbance) of DPBF at 410 nm vs the irradiation time, and F is the correction factor of absorption, which is given by F = 1–10^–O.D. (where O.D. is the optical density at 470 nm of solutions of complexes and references). The reproducibility of the results was confirmed by performing each experiment three times.\nThe stability of DPBF probe was studied in dark conditions and under light irradiation. In dark conditions and under green light irradiation the probe remains unaltered. However, under blue light irradiation, a photobleaching of DPBF was observed. Probe consumption was approximately 6.5% every 5 s. Therefore, a working interval of 20 s was chosen, where 75% of the probe remains stable. To calculate the ϕΔ, a correction factor was applied to the absorbance at 410 nm: a 6.5% of the previous value was added to each absorbance to counteract self-consumption of the probe (i.e., to the absorbance at 10 s, a 6.5% of the absorbance at 5 s was added)."}, "A549 cells [3]": {"system": "A549 cells", "assay": "Trypan blue exclusion test", "type": "cell-based, human", "conditions": "complexes at respective IC50 in the dark, 24 h", "description": "To assess the cytotoxicity of the complexes, A549 cells were seeded in 96-well plates and treated with the complexes at the respective IC50,dark value. After 24 h of incubation, 10 μL of Trypan Blue (0.4% solution; Sigma) was added directly to the wells to avoid loss of dead cells in the treatment washes. After 10 min, images of the cells were captured using an Olympus CKX41 Microscope equipped with LCmicro software (Olympus)."}, "[4]": {"system": "porcine red blood cells (RBC)", "assay": "Hemolytic activity (hemoglobin release)", "type": "cell-based", "conditions": "dark, 1 hour", "description": "The hemolytic activities of the complexes were determined by measuring hemoglobin release from porcine red blood cells (RBC). First, fresh porcine blood commercially obtained was diluted to 5% v/v in PBS solution and washed three times with PBS by centrifugation at 1000 rcf for 10 min. Then, RBC suspension (150 μL) was mixed with 150 μL of each complex at concentrations ranging from 1 to 50 μM. A solution of 0.2% Triton X-100 in PBS was used as positive control to induce complete hemolysis. PBS alone was used as negative control. Samples were incubated at 37 °C for 1 h in an orbital shaker (50 rpm) and then centrifuged at 3500 rcf for 10 min. 80 μL aliquots of the supernatant were transferred to a 96-well plate and diluted with 80 μL of Milli-Q water. Hemolysis was evaluated by measuring the absorbance of the samples at 540 nm with a Synergy 4 plate reader (BioTek, Winooski). The percentage of hemolysis (H) was calculated using eq 4: [drawing 25] 4 where As is the absorbance for a given sample, An is the absorbance for the negative control, and Ap is the absorbance for the positive control. Each sample was tested in triplicate."}, "A549 cells [5]": {"system": "A549 cells", "assay": "Lysosome damage (Acridine Orange, confocal microscopy)", "type": "cell-based, human", "conditions": "10 nM, blue light irradiation", "description": "For confocal microscopy experiments, A549 cells were seeded onto glass-bottom 8-well chamber slides (Ibidi) (5 × 10^4 cells per well) and allowed to attach overnight. In each experiment, the cells were treated with the complexes at the indicated conditions and washed with PBS before staining. For mitochondria visualization, the cells were incubated with the fluorescent dye MitoTracker Red CMXRos (Molecular Probes) at 200 nM in serum-free culture medium for 30 min at 37 °C. Cell nuclei were counterstained in blue with Hoechst 33342 (Invitrogen) diluted 1:4000 in DMEM without phenol red. To analyze lysosomal damage, the cells were incubated with AO at 5 μM at 37 °C for 15 min. Before observation, the cells were washed twice with PBS and fresh growth medium without phenol red was added. Cell images were immediately obtained by a Nikon A1R confocal microscope and images were analyzed using the NIS-Elements AR (Nikon, Japan) and the Fiji/ImageJ software."}}}
{"smiles": "Cc1c(C)c(C)[c-](C)c1C.[Cl][Ir]1[c]2cccc3c4nc5ccccc5nc4c4ccc[n+]1c4c23", "note": "[complex 1, [(η^5-C5Me5)IrCl(pbpz)]]", "values": [{"measurement": "1O2 generation quantum yield (ϕΔ), ABDA", "setting": "[1]", "result": 0.1913}, {"measurement": "1O2 generation quantum yield (ϕΔ), DPBF", "setting": "[2]", "result": 0.0780}]}
{"smiles": "Cc1c(C)c(C)[c-](C)c1C.F[B-](F)(F)F.c1ccc2cc3nc4c5ccc[n+]6c5c5[c](cccc5c4nc3cc2c1)[Ir]6[n+]1cc[nH]c1", "note": "[complex 4, [(η^5-C5Me5)Ir(Im)(pbpn)]BF4]", "values": [{"measurement": "proportion of cells with uptake of trypan blue dye", "setting": "A549 cells [3]", "result": 54, "unit": "%"}, {"measurement": "1O2 generation quantum yield (ϕΔ), DPBF", "setting": "[2]", "result": 0.9894}, {"measurement": "Slope (S) of ‐ln(normalized Abs) vs time, photooxidation of DPBF", "setting": "[2]; λir = 470 nm", "result": 0.0890}, {"measurement": "Slope (S) of ‐ln(normalized Abs) vs time, photooxidation of DPBF", "setting": "[2]; λir = 530 nm", "result": 0.0058}, {"measurement": "Hemolytic activity", "setting": "[4]; 1 μM", "result": 0, "unit": "%"}, {"measurement": "Hemolytic activity", "setting": "[4]; 5 μM", "result": 0, "unit": "%"}, {"measurement": "Hemolytic activity", "setting": "[4]; 10 μM", "result": 0.5, "unit": "%"}, {"measurement": "Hemolytic activity", "setting": "[4]; 25 μM", "result": 6.7, "unit": "%"}, {"measurement": "red fluorescent particles (lysosomes, AO staining)", "setting": "A549 cells [5]", "result": "completely disappeared"}]}
{"smiles": "Cc1c(C)c(C)[c-](C)c1C.F[B-](F)(F)F.c1ccc2nc3c4ccc[n+]5c4c4[c](cccc4c3nc2c1)[Ir]5[n+]1ccn(CCN2CCCCC2)c1", "note": "[complex 5, [(η^5-C5Me5)Ir(Imepip)(pbpz)]BF4]", "values": [{"measurement": "1O2 generation quantum yield (ϕΔ), DPBF", "setting": "[2]", "result": 0.026}]}
{"smiles": "Cc1c(C)c(C)[c-](C)c1C.F[B-](F)(F)F.c1ccc2cc3nc4c5ccc[n+]6c5c5[c](cccc5c4nc3cc2c1)[Ir]6[n+]1ccn(CCN2CCCCC2)c1", "note": "[complex 6, [(η^5-C5Me5) Ir(Imepip)(pbpn)]BF4]", "values": [{"measurement": "proportion of cells with uptake of trypan blue dye", "setting": "A549 cells [3]", "result": 53, "unit": "%"}, {"measurement": "1O2 generation quantum yield (ϕΔ), DPBF", "setting": "[2]", "result": 0.8118}, {"measurement": "Slope (S) of ‐ln(normalized Abs) vs time, photooxidation of DPBF", "setting": "[2]; λir = 470 nm", "result": 0.0657}, {"measurement": "Slope (S) of ‐ln(normalized Abs) vs time, photooxidation of DPBF", "setting": "[2]; λir = 530 nm", "result": 0.0069}, {"measurement": "Hemolytic activity", "setting": "[4]; 1 μM", "result": 0, "unit": "%"}, {"measurement": "Hemolytic activity", "setting": "[4]; 5 μM", "result": 0, "unit": "%"}, {"measurement": "Hemolytic activity", "setting": "[4]; 10 μM", "result": 1.0, "unit": "%"}, {"measurement": "Hemolytic activity", "setting": "[4]; 25 μM", "result": 10.7, "unit": "%"}, {"measurement": "red fluorescent particles (lysosomes, AO staining)", "setting": "A549 cells [5]", "result": "completely disappeared"}]}
{"smiles": "Cc1c(C)c(C)[c-](C)c1C.F[B-](F)(F)F.c1ccc(Cn2cc[n+]([Ir]3[c]4cccc5c6nc7ccccc7nc6c6ccc[n+]3c6c45)c2)cc1", "note": "[complex 7, [(η^5-C5Me5)Ir(bzIm)(pbpz)]BF4]", "values": [{"measurement": "1O2 generation quantum yield (ϕΔ), ABDA", "setting": "[1]", "result": 0.0526}, {"measurement": "1O2 generation quantum yield (ϕΔ), DPBF", "setting": "[2]", "result": 0.0204}]}
{"smiles": "Cc1c(C)c(C)[c-](C)c1C.F[B-](F)(F)F.c1ccc(Cn2cc[n+]([Ir]3[c]4cccc5c6nc7cc8ccccc8cc7nc6c6ccc[n+]3c6c45)c2)cc1", "note": "[complex 8, [(η^5-C5Me5)Ir(bzIm)(pbpn)]BF4]", "values": [{"measurement": "1O2 generation quantum yield (ϕΔ), ABDA", "setting": "[1]", "result": 0.4986}, {"measurement": "proportion of cells with uptake of trypan blue dye", "setting": "A549 cells [3]", "result": 23, "unit": "%"}, {"measurement": "1O2 generation quantum yield (ϕΔ), DPBF", "setting": "[2]", "result": 0.99}, {"measurement": "Slope (S) of ‐ln(normalized Abs) vs time, photooxidation of DPBF", "setting": "[2]; λir = 470 nm", "result": 0.0771}, {"measurement": "Slope (S) of ‐ln(normalized Abs) vs time, photooxidation of DPBF", "setting": "[2]; λir = 530 nm", "result": 0.0061}, {"measurement": "Hemolytic activity", "setting": "[4]; 1 μM", "result": 0.2, "unit": "%"}, {"measurement": "Hemolytic activity", "setting": "[4]; 5 μM", "result": 1.0, "unit": "%"}, {"measurement": "Hemolytic activity", "setting": "[4]; 10 μM", "result": 3.2, "unit": "%"}, {"measurement": "Hemolytic activity", "setting": "[4]; 25 μM", "result": 16.3, "unit": "%"}, {"measurement": "red fluorescent particles (lysosomes, AO staining)", "setting": "A549 cells [5]", "result": "completely disappeared"}]}
